The aqueous solubility is the concentration that dissolves in the medium under given conditions.

Data on 4 compounds can be found in patent US11395828B2, “Spironolactone aqueous compositions” (CMP DEVELOPMENT LLC, priority 2015, dated 2022).

The structures appear in SMILES notation. ≈ marks a conversion by molar mass, not a printed value.

For data set [1] the following is noted: sorbic acid and sorbate; cited from earlier work.
The conditions of data set [2]: added to a standard therapy for adults with severe heart failure; cited from earlier work.
For data set [3] the following is noted: Pramar et al.; cited from earlier work.
For data set [4] the following is noted: reported in Pramar et al.; cited from earlier work.
The nature of data set [5]: Particle size by laser diffraction. In kind it is physicochemical. The note with it: spironolactone solid prior to composition manufacture. On the procedure: Particle size measurements were performed on spironolactone (prior to composition manufacture) and on the particulate matter present in the compositions described herein by laser diffraction. The reported particle sizes D(v, 0.1), D(v, 0.5), and D(v, 0.9) relate to the mass median diameter (in μm) of the volume of distribution of the given particles. […] Alternatively, particle size can be estimated using optical microscopy.

The nature of another data set: Dissolution, USP <711>. The note with it: USP <711> dissolution study. In kind it is physicochemical. On the procedure: Dissolution was measured in a manner consistent with USP <711> reporting the amount of dissolved spironolactone as a percent of labeled content with an associated relative standard devision (“RSD”).

Take `C/C=C/C=C/C(=O)O` [sorbic acid]: the “equilibrium pKa-value” in data set [1] is recorded as “about 4.8”.

As for `CC(=O)S[C@@H]1CC2=CC(=O)CC[C@]2(C)[C@H]2CC[C@@]3(C)[C@@H](CC[C@@]34CCC(=O)O4)[C@H]12` [Spironolactone], in data set [2], the reduction in mortality is on record as 30%. The “pH at which spironolactone exhibits maximum stability” value in data set [3] is listed as 4.5. The aqueous solubility in data set [4] was 28 µg/mL (≈ 67.2 µM).

As to `CC(=O)S[C@@H]1CC2=CC(=O)CC[C@]2(C)[C@H]2CC[C@@]3(C)[C@@H](CC[C@@]34CCC(=O)O4)[C@H]12` [micronized spironolactone, spironolactone], in data set [5], the “particle size D(v, 0.5)” value is given as “about 3.64 m” and the “particle size D(v, 0.9)” value is given as “about 9.42 m”. Moreover, the “labeled content dissolved at 5-minutes” value in “Dissolution, USP <711>” is on record as “about 90 % of labeled content”.

With `CC(=O)S[C@@H]1CC2=CC(=O)CC[C@]2(C)[C@H]2CC[C@@]3(C)[C@@H](CC[C@@]34CCC(=O)O4)[C@H]12` [unmicronized spironolactone, spironolactone], in data set [5], the particle size D(v, 0.1) worked out at 7.47 µm; the particle size D(v, 0.5) was 18.3 µm; the particle size D(v, 0.9) is 35.5 µm. Besides, the “labeled content dissolved at 5-minutes” value in “Dissolution, USP <711>” is listed as “about 50 % of labeled content”.
